In ChEMBL document CHEMBL1201862, “PubChem BioAssay data set” (2004):
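Each compound was tested at five concentrations against cells in 96-well plates for 48 hours. The concentration for 50% growth inhibition is given as GI50.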 Active and inactive are the calls of the source. No stated cut-off is given here; in the data, active = GI50 up to about 1.1 µM and inactive = higher. Residues, ends and D or L forms follow the SMILES beside them. *: point of attachment. Bn = c1ccc(C*)cc1

Legend:
Experiment in all cases: NCI tumour cell line growth inhibition, 48 h
UACC-257 = system: UACC-257
MOLT-4 = system: MOLT-4
PC-3 = system: PC-3
ACHN = system: ACHN
SN12C = system: SN12C
HT-29 = system: HT-29
SK-OV-3 = system: SK-OV-3
MCF7 = system: MCF7
SK-MEL-28 = system: SK-MEL-28
NCI-H23 = system: NCI-H23
LOX IMVI = system: LOX IMVI
U-251 = system: U-251
RXF 393 = system: RXF 393
TK-10 = system: TK-10
COLO 205 = system: COLO 205
SF-268 = system: SF-268
UACC-62 = system: UACC-62
HOP-92 = system: HOP-92
CAKI-1 = system: CAKI-1
HCC 2998 = system: HCC 2998

Row | SMILES | GI50 (UACC-257) | GI50 (MOLT-4) | GI50 (PC-3) | GI50 (ACHN) | GI50 (SN12C) | GI50 (HT-29) | GI50 (SK-OV-3) | GI50 (MCF7) | GI50 (SK-MEL-28) | GI50 (NCI-H23) | GI50 (LOX IMVI) | GI50 (U-251) | GI50 (RXF 393) | GI50 (TK-10) | GI50 (COLO 205) | GI50 (SF-268) | GI50 (UACC-62) | GI50 (HOP-92) | GI50 (CAKI-1) | GI50 (HCC 2998)
1 | NCCSC1(O)C(=O)c2ccccc2-c2ccccc21 (stereo not given) | 0.435 µM (active) | 0.181 µM (active) | 1.25 µM (inactive) | 1.05 µM (active) | 1.36 µM (inactive) | 1.21 µM (inactive) | 1.63 µM (inactive) | 1.83 µM (inactive) | 1.21 µM (inactive) | 0.143 µM (active) | 0.256 µM (active) | 0.713 µM (active) | 1.64 µM (inactive) | 1.73 µM (inactive) | 1.85 µM (inactive) | 1.5 µM (inactive) | 1.64 µM (inactive) | – | – | –
2 | NC1CC(=O)c2cc(Cl)sc21 (stereo not given) | > 100 µM (inactive) | – | > 100 µM (inactive) | > 100 µM (inactive) | > 100 µM (inactive) | > 100 µM (inactive) | > 100 µM (inactive) | – | > 100 µM (inactive) | > 100 µM (inactive) | > 100 µM (inactive) | > 100 µM (inactive) | > 100 µM (inactive) | > 100 µM (inactive) | > 100 µM (inactive) | > 100 µM (inactive) | > 100 µM (inactive) | > 100 µM (inactive) | > 100 µM (inactive) | –
3 | CC(C)(C)OC(=O)NC(Cc1ccccc1)NC(=O)NC(=O)OCc1ccccc1 (stereo not given) | 81.3 µM (inactive) | > 100 µM (inactive) | 18.7 µM (inactive) | 39.1 µM (inactive) | > 100 µM (inactive) | > 100 µM (inactive) | 54.6 µM (inactive) | > 100 µM (inactive) | 38.9 µM (inactive) | 87.9 µM (inactive) | – | 58.5 µM (inactive) | 22 µM (inactive) | 53.2 µM (inactive) | – | 40.3 µM (inactive) | 25.3 µM (inactive) | – | 24 µM (inactive) | 40 µM (inactive)
4 | CNC(=O)CCNC(=O)CCC(=O)OC | – | > 100 µM (inactive) | > 100 µM (inactive) | > 100 µM (inactive) | > 100 µM (inactive) | > 100 µM (inactive) | > 100 µM (inactive) | > 100 µM (inactive) | > 100 µM (inactive) | > 100 µM (inactive) | – | > 100 µM (inactive) | > 100 µM (inactive) | > 100 µM (inactive) | > 100 µM (inactive) | > 100 µM (inactive) | > 100 µM (inactive) | – | > 100 µM (inactive) | –
5 | O=C(O)Cn1nnc2c(=O)[nH][nH]c(=O)c21 | > 100 µM (inactive) | > 10 µM (inactive) | – | > 100 µM (inactive) | > 100 µM (inactive) | > 100 µM (inactive) | – | > 100 µM (inactive) | > 100 µM (inactive) | > 100 µM (inactive) | > 100 µM (inactive) | > 100 µM (inactive) | – | > 100 µM (inactive) | > 100 µM (inactive) | – | – | > 100 µM (inactive) | > 100 µM (inactive) | > 100 µM (inactive)
6 | Cc1cc(S(=O)(=O)N=C2NCC(C)(C)CN2)c(S)cc1Cl | 42.3 µM (inactive) | – | 30.3 µM (inactive) | 24.1 µM (inactive) | 47.1 µM (inactive) | 19.3 µM (inactive) | > 100 µM (inactive) | 42.5 µM (inactive) | 36.6 µM (inactive) | – | 15.5 µM (inactive) | 23.7 µM (inactive) | 38 µM (inactive) | 39 µM (inactive) | 47.3 µM (inactive) | 73.3 µM (inactive) | 25.3 µM (inactive) | – | 52 µM (inactive) | 67.6 µM (inactive)
7 | CN(C)C(n1cc2c(c1)-c1ccc(Cl)cc1C(c1ccccc1F)=NC2)n1cc2c(c1)-c1ccc(Cl)cc1C(c1ccccc1F)=NC2 | > 100 µM (inactive) | > 100 µM (inactive) | 46.6 µM (inactive) | 63.2 µM (inactive) | > 100 µM (inactive) | 14.3 µM (inactive) | > 100 µM (inactive) | 64.3 µM (inactive) | 21.5 µM (inactive) | 3.31 µM (inactive) | 12 µM (inactive) | > 100 µM (inactive) | 20.2 µM (inactive) | – | > 100 µM (inactive) | 36 µM (inactive) | > 100 µM (inactive) | – | > 100 µM (inactive) | 82 µM (inactive)
8 | O=c1oc2ccc3ccccc3c2cc1-c1cn2ccccc2n1 | > 100 µM (inactive) | > 100 µM (inactive) | > 100 µM (inactive) | 22.6 µM (inactive) | 48.1 µM (inactive) | 26.5 µM (inactive) | 39.4 µM (inactive) | – | > 100 µM (inactive) | > 100 µM (inactive) | 91.8 µM (inactive) | 24.2 µM (inactive) | > 100 µM (inactive) | 67.8 µM (inactive) | > 100 µM (inactive) | 80.5 µM (inactive) | > 100 µM (inactive) | 90.6 µM (inactive) | 11.8 µM (inactive) | > 100 µM (inactive)
9 | COC(=O)[C@H]1ON2O[C@@H](O[C@H]3CCCC[C@@H]3C(C)(C)c3ccccc3)C[C@@H]3CC[C@H]1[C@@]32C | > 100 µM (inactive) | > 100 µM (inactive) | – | > 100 µM (inactive) | > 100 µM (inactive) | > 100 µM (inactive) | > 100 µM (inactive) | > 100 µM (inactive) | – | > 100 µM (inactive) | > 100 µM (inactive) | > 100 µM (inactive) | > 100 µM (inactive) | > 100 µM (inactive) | > 100 µM (inactive) | > 100 µM (inactive) | > 100 µM (inactive) | > 100 µM (inactive) | > 100 µM (inactive) | > 100 µM (inactive)
10 | O=C(/C=C(\C(=O)c1cccs1)c1cccs1)c1ccc(C(=O)/C=C(\C(=O)c2cccs2)c2cccs2)cc1 | > 100 µM (inactive) | > 100 µM (inactive) | > 100 µM (inactive) | > 100 µM (inactive) | > 100 µM (inactive) | > 100 µM (inactive) | > 100 µM (inactive) | > 100 µM (inactive) | > 100 µM (inactive) | – | – | > 100 µM (inactive) | > 100 µM (inactive) | > 100 µM (inactive) | > 100 µM (inactive) | > 100 µM (inactive) | > 100 µM (inactive) | – | > 100 µM (inactive) | > 100 µM (inactive)
11 | CN(C)CCNC(=O)c1cccc2c1nc(-c1ccc(F)cc1)c1ccccc12 | 2.95 µM (inactive) | 0.232 µM (active) | – | 2.64 µM (inactive) | 2.77 µM (inactive) | 3.85 µM (inactive) | 8.47 µM (inactive) | – | 7.76 µM (inactive) | 5.71 µM (inactive) | 1.83 µM (inactive) | 3.18 µM (inactive) | 3.2 µM (inactive) | 4.03 µM (inactive) | 3.21 µM (inactive) | 6.58 µM (inactive) | 3.09 µM (inactive) | 2.45 µM (inactive) | 3.27 µM (inactive) | 3.34 µM (inactive)
12 | Nc1c(C(=O)O)nnc2cc(Cl)ccc12 | > 100 µM (inactive) | > 100 µM (inactive) | > 100 µM (inactive) | 97.5 µM (inactive) | > 100 µM (inactive) | > 100 µM (inactive) | > 100 µM (inactive) | > 100 µM (inactive) | – | > 100 µM (inactive) | > 100 µM (inactive) | > 100 µM (inactive) | – | > 100 µM (inactive) | > 100 µM (inactive) | > 100 µM (inactive) | 32 µM (inactive) | – | > 100 µM (inactive) | > 100 µM (inactive)
13 | Cc1ccc(S(=O)(=O)Nn2c(S)c(C#N)c(-c3ccc(N(C)C)cc3)c(C#N)c2=O)cc1 | 51.4 µM (inactive) | 23.4 µM (inactive) | – | 20.6 µM (inactive) | 26.4 µM (inactive) | – | 48.8 µM (inactive) | 30.8 µM (inactive) | 20.1 µM (inactive) | 19.1 µM (inactive) | 22.1 µM (inactive) | 21.5 µM (inactive) | 19.3 µM (inactive) | 19.8 µM (inactive) | 22 µM (inactive) | – | 25.7 µM (inactive) | 29.6 µM (inactive) | > 100 µM (inactive) | 38.2 µM (inactive)
14 | OC1[C@H]([C@H]2CCCC[C@@H]2O)CCC[C@@H]1[C@@H]1CCCC[C@H]1O (stereo not given in full) | > 100 µM (inactive) | > 100 µM (inactive) | – | > 100 µM (inactive) | > 100 µM (inactive) | > 100 µM (inactive) | > 100 µM (inactive) | – | > 100 µM (inactive) | > 100 µM (inactive) | > 100 µM (inactive) | > 100 µM (inactive) | > 100 µM (inactive) | > 100 µM (inactive) | > 100 µM (inactive) | > 100 µM (inactive) | > 100 µM (inactive) | > 100 µM (inactive) | > 100 µM (inactive) | > 100 µM (inactive)
15 | COC(=O)C(CC(C)C)NC(=O)C(N)Cc1ccc(OCc2ccccc2)cc1 (stereo not given) (H-Tyr(Bn)-Leu-OMe; configuration not given here) | > 10 µM (inactive) | > 10 µM (inactive) | > 10 µM (inactive) | > 10 µM (inactive) | > 10 µM (inactive) | > 10 µM (inactive) | > 10 µM (inactive) | – | > 10 µM (inactive) | > 10 µM (inactive) | > 10 µM (inactive) | > 10 µM (inactive) | > 10 µM (inactive) | > 10 µM (inactive) | > 10 µM (inactive) | > 10 µM (inactive) | > 10 µM (inactive) | > 10 µM (inactive) | > 10 µM (inactive) | > 10 µM (inactive)
